The subject of one assay is ov-NNMT NCI-H82 cell. Nature of the assay: Cell viability (Promega CellTiter-Glo, intracellular ATP), IC50 on NNMT-overexpressing NCI-H82 cell. Conditions: Homo sapiens; NCI-H82 cell overexpressing NNMT protein. The class given is cell-based. The procedure, abridged:
(§1)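 Con-NCI-H82 cells and NCI-H82 cells overexpressing NNMT via a viral vector were grown in RPMI1640 with 10% FBS. Viability was read as intracellular ATP by CellTiter-Glo luminescence, giving IC50.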
(In ATP-based viability assays light output follows the ATP content of the culture.)

The next assay has as its system Con-NCI-H82 cell. Briefly: Cell viability (Promega CellTiter-Glo, intracellular ATP), IC50 on Con-NCI-H82 cell. The class given is cell-based. To be noted: Homo sapiens; normal untreated NCI-H82 cell (control). The procedure, abridged: as §1
The next assay concerns mPTP-inactive Daoy cell. Nature of the assay: Cell viability (Promega CellTiter-Glo), IC50 on mPTP-inactive Daoy cell (PPIF shRNA). The assay is classed as cell-based. To be noted: Homo sapiens; Daoy cell transfected with PPIF shRNA vector.
Another assay deals with mPTP-active Daoy cell. Nature of the assay: Cell viability (Promega CellTiter-Glo), IC50 on mPTP-active Daoy cell. The class given is cell-based. To be noted: Homo sapiens; Daoy cell transfected with empty virus vector.
The test system of assay [1] is mitochondria permeability transition pore (mPTP). Conditions: Daoy cell with PPIF shRNA vector; CsA −, H2O2 +; untreated = 100.
For assay [2] the test system is unchanged. Nature of the assay: Mitochondria membrane potential difference by TMRM in Daoy cell. The class given is cell-based, human. Conditions: CsA −, H2O2 +, untreated = 100.
The test system is the same in assay [3]. The class given is cell-based, human. To be noted: Daoy cell with empty virus vector; CsA −, H2O2 +; untreated = 100.

Read-outs that look alike come from different tables or passages of the source.

As for `O=C1c2cc(C(F)(F)F)ccc2CCC1n1ncc2c[n+](Cc3ccccc3)ccc21` (centres unmarked) [AB31774], the IC50 (as a rule, the concentration needed to halve the response being measured) with ov-NNMT NCI-H82 cell amounted to 7.92 µM; in the assay on Con-NCI-H82 cell it was 0.97 µM; in the assay on mPTP-inactive Daoy cell, 1.53 µM; with mPTP-active Daoy cell it was 9.92 µM.

As for `O=C1c2cc(OC(F)(F)F)ccc2CCC1n1ncc2c[n+](Cc3ccccc3)ccc21` (centres unmarked) [AB31775], the IC50 is 2.09 µM with ov-NNMT NCI-H82 cell, 0.124 µM in the assay on Con-NCI-H82 cell, 1.39 µM in the assay with mPTP-inactive Daoy cell and 5.38 µM in the assay on mPTP-active Daoy cell.

`Cc1ccc2c(c1)CCC(n1ncc3c[n+](Cc4ccccc4)ccc31)C2=O` (centres unmarked) [AB31777]: the IC50 amounted to 1.99 µM in the assay on ov-NNMT NCI-H82 cell, 0.128 µM in the assay with Con-NCI-H82 cell, 1.23 µM in the assay on mPTP-inactive Daoy cell and 6.99 µM in the assay with mPTP-active Daoy cell.

Consider `Nc1cc[n+](CC(=O)c2ccccc2)cc1` [AB36527], for which the IC50 in the assay on ov-NNMT NCI-H82 cell is 36.5 µM; in the assay with Con-NCI-H82 cell, 39.7 µM; with mPTP-inactive Daoy cell it was 40.9 µM; in the assay with mPTP-active Daoy cell it was 39.1 µM.

Regarding `Nc1cc[n+](CC(=O)c2ccc(OC(F)(F)F)cc2)cc1` [AB36528], the IC50 in the assay on ov-NNMT NCI-H82 cell amounted to 19 µM; in the assay on Con-NCI-H82 cell, 19.5 µM; in the assay on mPTP-inactive Daoy cell it was 17.9 µM; in the assay on mPTP-active Daoy cell, 15.7 µM.

Consider `OO` [Compound H2O2, H2O2], for which the “Relative TMRM signal intensity (%), mean value” in assay [1] came to 95%; in assay [2], 82%; in assay [3] it was 79%.
